# Results as given in article PMC3502552, “A dimerized urea-based inhibitor of the prostate-specific membrane antigen for ^68Ga-PET imaging of prostate cancer” (EJNMMI Research, 2012).
# How the values were obtained:
# [1] = tested on: PSMA+ LNCaP cells; assay: Cell binding and internalization in LNCaP cells; assay type: cell-based, human
# Description: (§1) Internalization experiments were performed as previously described. Briefly, 10^5 LNCaP or PC-3 cells were seeded in poly-L-lysine-coated 24-well cell culture plates 24 h before incubation. After washing with PBS, the cells were incubated with the radiolabeled compounds ^68Ga]6 or ^68Ga]7 (25 nM final concentration) for 45 min at 37°C and at 4°C, respectively. To determine specific cellular uptake, cells were blocked with 2-(phosphonomethyl)-pentanedioic acid (PMPA, Axxora, Loerrach, Germany) to a final concentration of 100 μM. Cellular uptake was terminated by washing four times with 1 mL of ice-cold PBS. To remove surface-bound radioactivity, cells were incubated twice with 0.5 mL glycine-HCl in PBS (50 mM, pH = 2.8) for 5 min. The cells were washed with 1 mL of ice-cold PBS and lysed using 0.3 N NaOH (0.5 mL). The surface-bound and the internalized fractions were measured in a gamma counter.
# [2] = tested on: PSMA− PC-3 cells; assay: Cell binding and internalization in PC-3 cells; assay type: cell-based, human; details: 25 nM, 45 min
# Description: as §1
# [3] = tested on: LNCaP cells; assay: Cell surface retention (efflux); assay type: cell-based, human; details: 2-PMPA added to avoid rebinding, compared to monomer
# Description: The determination of cell surface retention was performed in accordance to a previously described experiment. Briefly, 5 × 10^6 LNCaP cells in a 320-μL RPMI 1640 medium were incubated with ^68Ga]6 or ^68Ga]7 (25 nM final concentration), respectively, for 45 min at 37°C. Cells were washed three times and resuspended in the RPMI 1640 medium (320 μL); samples were taken as a control for total cell-associated activity (cell surface bound and internalized). Subsequently, 0.5 μL of a 2-PMPA solution (100 mmol/L in DMSO) was added to avoid rebinding and to enhance the competitive pressure on releasing the radioactivity from the cell surface. At indicated time points, 10-μL samples were taken and transferred on top of a 400-μL microcentrifuge tube containing 350 μL of a 75:25 mixture of silicon oil (density 1.05; Aldrich), and mineral oil (density 0.872; Acros, Thermo Fisher Scientific). Subsequently, the tubes were centrifuged at 12,000 rpm for 2 min to separate cellular radioactivity and radioactivity solved in the medium. After freezing in liquid nitrogen, the bottom tips containing the cell pellet were cut off. The cell pellets and the medium were measured in a gamma counter to determine cellular uptake
# (1) %uptake=100×cpminpellet/cpminpellet+cpminsupernatant
# [4] = tested on: LNCaP tumor xenografts; assay: Biodistribution in mice bearing LNCaP tumor xenografts; assay type: in vivo, BALB/c nu/nu mice; details: 1 h post-injection
# Description: (§2) Male BALB/c nu/nu mice of 7 to 8 weeks old (Charles River Laboratories, Wilmington, MA, USA) were subcutaneously inoculated into the right trunk with 5 × 10^6 cells of either LNCaP or PC-3 (both in 50% Matrigel; Becton Dickinson, Heidelberg, Germany). The tumors were allowed to grow for 3 to 4 weeks until approximately 1 cm^3 in size. The ^68Ga-radiolabeled compounds were injected into a tail vein (1 to 2 MBq/mouse; 0.1 to 0.2 nmol). At 1 h after injection, the animals were sacrificed. Organs of interest were dissected, blotted dry, and weighed. The radioactivity was measured using a gamma counter and calculated as percentage injected dose per gram (% ID/g).
# [5] = tested on: PSMA− PC-3 tumor; assay: Biodistribution in PC-3 tumor-bearing mice; assay type: in vivo, BALB/c nu/nu mice; details: 1 h post-injection; PSMA− PC-3 tumor-bearing mice
# Description: as §2, with “At 1 h after injection, the animals were sacrificed.” left out
# [6] = Radiochemical stability in human serum and PBS; assay type: in vitro ADME; details: 2 h incubation at 37°C
# Description: (§3) The radiochemical stability was analyzed in both phosphate-buffered saline (PBS) and human serum. After 2 h of incubation at 37°C, an equal volume of CH3CN was added to the samples to precipitate serum proteins. Subsequently, the samples were centrifuged for 5 min at 13,000 rpm. Aliquots of the supernatant and the PBS sample were analyzed via RP-HPLC. In addition, serum samples were run on a Superdex 75 GL 5/150 gel filtration column (GE Healthcare, Munich, Germany) to analyze potential protein binding (PBS pH 7 as eluent).
# [7] = biological target: apo-transferrin (Homo sapiens, UniProt P02787); assay: Complex stability against human transferrin / protein binding (size exclusion chromatography); assay type: in vitro ADME; details: after incubation in human serum or in the presence of apo-transferrin; 2 h, 37°C
# Description: as §3, with “eluent). To analyze the complex stability against human transferrin, a 400-μL aliquot was added to 250 μg of apo-transferrin in PBS at pH 7 and incubated at 37°C (water bath) for 2 h. The complex stability was determined using a Superdex 75 GL 5/150 short column with PBS pH 7 as eluent.” for “eluent).”
# [8] = tested on: LNCaP tumor xenograft; assay: Dynamic microPET in mice bearing LNCaP tumor xenografts; assay type: in vivo; details: L-isomer versus D-isomer
# Description: For the microPET studies, 10 to 25 MBq of either [^68Ga]6 or [^68Ga]7 in a volume of 0.15 mL (approximately 0.5 nmol) was injected via a lateral tail vein into mice bearing LNCaP tumor xenografts. The anesthetized animals (2% sevoflurane, Abbott, Wiesbaden, Germany) were placed in prone position into an Inveon small animal PET scanner (Siemens, Knoxville, TN, USA) to perform a 50-min dynamic microPET scan starting at 1 min post-injection followed by a 20-min static scan. All animal experiments complied with the current laws of the Federal Republic of Germany.
# [9] = i.v. tail vein, 0.1 to 0.2 nmol
# Sequence of apo-transferrin (P02787 20-698): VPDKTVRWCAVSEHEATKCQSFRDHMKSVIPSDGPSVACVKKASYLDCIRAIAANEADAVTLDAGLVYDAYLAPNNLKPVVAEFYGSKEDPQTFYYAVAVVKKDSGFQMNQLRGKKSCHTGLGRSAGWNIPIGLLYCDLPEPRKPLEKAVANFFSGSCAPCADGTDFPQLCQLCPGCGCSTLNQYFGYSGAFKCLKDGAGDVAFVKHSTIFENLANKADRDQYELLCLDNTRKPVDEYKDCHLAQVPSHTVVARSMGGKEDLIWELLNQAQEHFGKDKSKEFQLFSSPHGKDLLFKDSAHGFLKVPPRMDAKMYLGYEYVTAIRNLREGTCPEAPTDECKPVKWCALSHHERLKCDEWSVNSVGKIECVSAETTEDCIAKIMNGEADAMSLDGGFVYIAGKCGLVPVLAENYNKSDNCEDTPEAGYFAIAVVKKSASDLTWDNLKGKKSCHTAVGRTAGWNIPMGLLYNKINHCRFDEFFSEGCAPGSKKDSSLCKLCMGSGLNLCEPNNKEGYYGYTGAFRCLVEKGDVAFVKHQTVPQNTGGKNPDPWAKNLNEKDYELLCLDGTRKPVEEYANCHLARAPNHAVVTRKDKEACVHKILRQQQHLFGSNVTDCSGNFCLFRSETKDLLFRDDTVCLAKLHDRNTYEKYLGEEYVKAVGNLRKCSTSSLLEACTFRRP
smiles,measurement,setting,value
"O=C(O)CC[C@H](NC(=O)N[C@@H](CCCCNC(=O)CCCCCNC(=O)CCc1ccc(O)c(CN(CCN(CC(=O)O)Cc2cc(CCC(=O)NCCCCCC(=O)NCCCC[C@H](NC(=O)N[C@@H](CCC(=O)O)C(=O)O)C(=O)O)ccc2O)CC(=O)O)c1)C(=O)O)C(=O)O [[^68Ga]7, metal not drawn]",Internalized fraction,"[1]; 25 nM, 45 min",approximately 25%
same,Cellular uptake,"[1]; 25 nM, 45 min, percentage of applied radioactivity bound to 10^6 cells",40.04 ± 6.09%
same,Uptake in the presence of 2-PMPA,[1]; 100 μM 2-PMPA,blocked
same,Binding to PSMA− PC-3 cells,[2],no binding
same,Cell surface retention (efflux experiment),[3],prolonged cell surface retention
same,Enhanced tumor uptake of dimer versus monomer (factor),[4]; LNCaP tumor,approximately 1.7
same,Tumor-to-blood ratio (T/B),[4]; LNCaP tumor,26.5
same,Kidney uptake after co-injection of PMPA,[4]; blocked with 2 mg/kg 2-PMPA,8.29 ± 0.83 % ID/g
same,Spleen uptake after blocking,[4]; blocked with 2 mg/kg 2-PMPA,0.67 ± 0.11 % ID/g
same,"Organ distribution, Blood",[4]; [9],0.31 ± 0.03 % ID/g
same,"Organ distribution, Brain",[4]; [9],0.17 ± 0.01 % ID/g
same,"Organ distribution, Heart",[4]; [9],0.90 ± 0.12 % ID/g
same,"Organ distribution, Intestine",[4]; [9],0.57 ± 0.14 % ID/g
same,"Organ distribution, Kidney",[4]; [9],133.43 ± 18.88 % ID/g
same,"Organ distribution, Liver",[4]; [9],1.29 ± 0.11 % ID/g
same,"Organ distribution, Lung",[4]; [9],2.25 ± 0.24 % ID/g
same,"Organ distribution, Muscle",[4]; [9],0.90 ± 0.01 % ID/g
same,"Organ distribution, Spleen",[4]; [9],17.88 ± 4.53 % ID/g
same,"Organ distribution, LNCaP tumor",[4]; n = 5,8.22 ± 1.78 % ID/g
same,"Organ distribution, PC-3 tumor",[5],0.93 ± 0.53 % ID/g
same,Intact compound by HPLC analysis,[6],99%
same,Changes in size exclusion chromatography,[7],no changes in size exclusion chromatography were detected
same,Tumor time-activity behaviour in dynamic PET,[8],accumulation in the tumor
